Experimental data: US5753648A, “Tricyclic benzazepine vasopressin antagonists” (American Cyanamid Company, priority 1996, dated 1998)

Legend:
Rat Hepatic V1 Receptors = Rat Hepatic V1 Receptors (Rattus norvegicus, UniProt P30560); experiment: Binding Assay to Rat Hepatic V1 Receptors
Description: Binding Assay to Rat Hepatic V1 Receptors
Rat liver plasma membranes expressing the vasopressin V1 receptor subtypes are isolated by sucrose density gradient according to the method described by Lesko et al, (1973). These membranes are quickly suspended in 50.0 mM Tris.HCl buffer, pH 7.4, containing 0.2% bovine serum albumin (BSA) and 0.1 mM phenylmethylsulfonylfluoride (PMSF) and kept frozen at -70° C. until used in subsequent binding experiments. For binding experiments, the following is added to the wells of a ninety-six well format microtiter plate: 100 μl of 100.0 mM Tris.HCl buffer containing 10.0 mM MgCl2, 0.2% heat inactivated BSA and a mixture of protease inhibitors: leupeptin, 1.0 mg %; aprotinin, 1.0 mg %; 1,10-phenanthroline,2.0 mg %; trypsin inhibitor, 10.0 mg % and 0.1 mM PMSF, 20.0 μl of [phenylalanyl-3,4,5,-^3 H] vaso-pressin (S.A. 45.1 Ci/mmole) at 0.8 nM, and the reaction initiated by the addition of 80 μl of tissue membranes containing 20 μg of tissue protein. The plates are kept undisturbed on the bench top at room temperature for 120 min. to reach equilibrium. Non-specific samples are assayed in the presence of 0.1 μm of the unlabeled antagonist phenylalanylvasopressin, added in 20.0 μl volume. For test compounds, these are solubilized in 50% dimethylsulfoxide (DMSO) and added in 20.0 μl volume to a final incubation volume of 200 μl. Upon completion of binding, the content of each well is filtered off, using a Brandel® cell Harvester (Gaithersburg, Md.). The radioactivity trapped on the filter disk by the ligand-receptor complex is assessed by liquid scintillation counting in a Packard LS Counter, with an efficiency of 65% for tritium. The data are analyzed for IC50 values by the LUNDON-2 program for competition (LUNDON SOFTWARE, Ohio).

oxytocin receptors = target: T1, oxytocin receptors (Rattus norvegicus, UniProt P70536); experiment: Oxytocin Receptor Binding
T1 sequence (P70536 1-388): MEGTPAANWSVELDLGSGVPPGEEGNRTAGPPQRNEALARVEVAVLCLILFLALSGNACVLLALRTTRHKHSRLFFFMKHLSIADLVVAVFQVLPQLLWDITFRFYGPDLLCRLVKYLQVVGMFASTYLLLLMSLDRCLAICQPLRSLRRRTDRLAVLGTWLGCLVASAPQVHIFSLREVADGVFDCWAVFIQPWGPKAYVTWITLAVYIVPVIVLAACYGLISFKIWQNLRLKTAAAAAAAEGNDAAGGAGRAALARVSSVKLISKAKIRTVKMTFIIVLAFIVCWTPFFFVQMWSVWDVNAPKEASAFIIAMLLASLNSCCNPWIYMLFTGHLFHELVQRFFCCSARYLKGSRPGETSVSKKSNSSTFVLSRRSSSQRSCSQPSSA
Description: Female Sprague-Dawley rats weighing approximately 200-250 g are injected intramuscularly (i.m.) with 0.3 mg/kg of body weight of diethylstilbestrol (DES). The rats are sacrificed 18 hours later under pentobarbital anesthesia. The uteri are dissected out, cleaned of fat and connective tissues and rinsed in 50 ml of normal saline. The tissue pooled from six rats is homogenized in 50 ml of 0.01 mM Tris.HCl, containing 0.5 mM dithiothreitol and 1.0 mM EDTA, adjusted to pH 7.4, using a polytron at setting 6 with three passes of 10 sec each. The homogenate is passed through two (2) layers of cheesecloth and the filtrate centrifuged at 1000×g for 10 min. The clear supernatant is removed and recentrifuged at 165,000×g for 30 min. The resulting pellet containing the oxytocin receptors is resuspended in 50.0 mM Tris.HCl containing 5.0 mM MgCl2 at pH 7.4, to give a protein concentration of 2.5 mg/ml of tissue suspension. This preparation is used in subsequent binding assays with [^3 H]Oxytocin.
Binding of 3,5-[^3 H]Oxytocin ([^3 H]OT) to its receptors is done in microtiter plates using [^3 H]OT, at various concentrations, in an assay buffer of 50.0 mM Tris.HCl, pH 7.4 and containing 5.0 mM MgCl2, and a mixture of protease inhibitors: BSA, 0.1 mg; aprotinin, 1.0 mg; 1,10-phenanthroline, 2.0 mg; trypsin, 10.0 mg; and PMSF, 0.3 mg per 100 ml of buffer solution. Non-specific binding is determined in the presence of 1.0 uM unlabeled OT. The binding reaction is terminated after 60 min., at 220° C., by rapid filtration through glass fiber filters using a Brandel® cell harvester (Bio-medical Research and Development Laboratories, Inc., Gaithersburg, Md.). Competition experiments are conducted at equilibrium using 1.0 nM [^3 H]OT and varying the concentration of the displacing agents. The concentrations of agent displacing 50% of [^3 H]OT at its sites (IC50) are calculated by a computer assisted LUNDON-2 program (LUNDON SOFTWARE INC., Ohio, USA).

[1] = target: T2, Rat Kidney Medullary V2 Receptors (Rattus norvegicus, UniProt Q00788); experiment: biochemical; assay type: binding
T2 construct: Medullary tissues from rat kidneys are dissected out; from tissue; host or cells: rat kidney medulla membranes
T2 sequence (Q00788 whole entry): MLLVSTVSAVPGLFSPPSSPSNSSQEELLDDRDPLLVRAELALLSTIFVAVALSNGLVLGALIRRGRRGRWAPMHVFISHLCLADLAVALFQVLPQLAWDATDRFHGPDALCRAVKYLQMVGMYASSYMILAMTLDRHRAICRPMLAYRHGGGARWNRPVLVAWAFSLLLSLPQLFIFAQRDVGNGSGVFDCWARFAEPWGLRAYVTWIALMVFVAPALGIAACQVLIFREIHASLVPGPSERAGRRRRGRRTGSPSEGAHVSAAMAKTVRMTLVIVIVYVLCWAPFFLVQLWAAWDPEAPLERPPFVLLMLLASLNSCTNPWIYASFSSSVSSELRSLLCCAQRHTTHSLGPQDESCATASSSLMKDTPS

Sequence of Rat Hepatic V1 Receptors (P30560 whole entry): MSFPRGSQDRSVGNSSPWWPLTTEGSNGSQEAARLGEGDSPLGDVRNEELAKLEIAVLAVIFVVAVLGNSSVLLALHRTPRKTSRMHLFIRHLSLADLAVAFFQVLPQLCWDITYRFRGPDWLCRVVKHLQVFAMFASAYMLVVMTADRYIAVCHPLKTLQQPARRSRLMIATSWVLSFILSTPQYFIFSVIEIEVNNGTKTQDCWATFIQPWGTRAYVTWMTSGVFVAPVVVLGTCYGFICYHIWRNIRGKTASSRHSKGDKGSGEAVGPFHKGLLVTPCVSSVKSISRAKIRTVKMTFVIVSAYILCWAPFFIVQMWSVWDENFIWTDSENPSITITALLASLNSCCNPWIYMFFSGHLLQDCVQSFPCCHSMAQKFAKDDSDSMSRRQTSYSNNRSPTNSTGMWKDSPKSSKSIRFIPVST

IC50 (Rat Hepatic V1 Receptors): 33 nM | inhibition at 10 µM (oxytocin receptors; dose 10 μM): 92% | IC50 (oxytocin receptors; rat uterine membranes, [3H]oxytocin): 200 nM | IC50 [1]: 4 nM
SMILES: Cc1ccc(F)cc1C(=O)Nc1ccc(C(=O)N2Cc3cccn3Cc3ccccc32)cn1 [Example 1, N-[5-(5H-Pyrrolo[2,1-c][1,4]benzodiazetin-10(11H)-ylcarbonyl)-2-pyridinyl]-5-fluoro-2-methylbenzamide]
